Literature values in patent publication EP2322149A1, “Methods and compositions for the treatment of ischemia” (Universidad del Pais Vasco, priority 2009, dated 2011).

Columns and labels:
P2X1 = target: T1, P2X1 (Homo sapiens, UniProt P51575); conditions: read-out: IC50 P2X1; cited from earlier work
T1 sequence (P51575 1-399): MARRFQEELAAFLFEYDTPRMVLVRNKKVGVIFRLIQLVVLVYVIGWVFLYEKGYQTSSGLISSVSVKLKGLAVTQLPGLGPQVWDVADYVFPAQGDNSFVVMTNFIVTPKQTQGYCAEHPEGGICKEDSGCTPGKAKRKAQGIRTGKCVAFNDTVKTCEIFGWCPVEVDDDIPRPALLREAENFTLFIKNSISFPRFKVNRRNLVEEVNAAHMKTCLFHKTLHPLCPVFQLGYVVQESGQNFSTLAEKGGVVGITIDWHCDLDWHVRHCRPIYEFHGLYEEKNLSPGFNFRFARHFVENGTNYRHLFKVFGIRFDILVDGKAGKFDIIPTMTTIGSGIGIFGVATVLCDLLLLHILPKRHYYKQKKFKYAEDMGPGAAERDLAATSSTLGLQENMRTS

P2X2 = target: T2, P2X2 (Homo sapiens, UniProt Q9UBL9); conditions: read-out: IC50 P2X2; cited from earlier work
T2 sequence (Q9UBL9 1-471): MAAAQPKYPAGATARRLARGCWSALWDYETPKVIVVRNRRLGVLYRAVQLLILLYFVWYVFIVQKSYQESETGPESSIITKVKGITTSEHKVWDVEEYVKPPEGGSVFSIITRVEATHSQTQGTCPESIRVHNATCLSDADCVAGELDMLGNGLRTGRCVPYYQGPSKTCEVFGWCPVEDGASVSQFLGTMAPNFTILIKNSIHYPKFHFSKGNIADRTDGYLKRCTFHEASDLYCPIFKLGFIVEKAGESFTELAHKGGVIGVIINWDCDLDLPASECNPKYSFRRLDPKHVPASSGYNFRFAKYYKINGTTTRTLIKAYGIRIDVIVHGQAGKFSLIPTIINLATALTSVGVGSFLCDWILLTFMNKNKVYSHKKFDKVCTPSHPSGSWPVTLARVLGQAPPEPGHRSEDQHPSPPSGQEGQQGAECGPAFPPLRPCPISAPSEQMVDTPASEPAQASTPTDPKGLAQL

P2X3 = target: T3, P2X3 (Homo sapiens, UniProt P56373); conditions: read-out: IC50 P2X3; cited from earlier work
T3 sequence (P56373 1-397): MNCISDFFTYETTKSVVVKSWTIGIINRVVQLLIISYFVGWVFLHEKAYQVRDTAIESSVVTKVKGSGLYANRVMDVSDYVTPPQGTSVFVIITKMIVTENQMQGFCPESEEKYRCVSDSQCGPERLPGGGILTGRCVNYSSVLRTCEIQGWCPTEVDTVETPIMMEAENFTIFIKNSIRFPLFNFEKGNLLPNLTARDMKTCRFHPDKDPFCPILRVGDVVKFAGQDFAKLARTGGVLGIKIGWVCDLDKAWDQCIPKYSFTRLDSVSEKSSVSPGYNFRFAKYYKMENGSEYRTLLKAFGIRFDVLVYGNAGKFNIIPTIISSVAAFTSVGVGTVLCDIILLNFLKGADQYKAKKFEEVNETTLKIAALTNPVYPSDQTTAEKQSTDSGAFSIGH

P2X4 = target: T4, P2X4 (Homo sapiens, UniProt Q99571); conditions: read-out: IC50 P2X4; cited from earlier work
T4 sequence (Q99571 1-388): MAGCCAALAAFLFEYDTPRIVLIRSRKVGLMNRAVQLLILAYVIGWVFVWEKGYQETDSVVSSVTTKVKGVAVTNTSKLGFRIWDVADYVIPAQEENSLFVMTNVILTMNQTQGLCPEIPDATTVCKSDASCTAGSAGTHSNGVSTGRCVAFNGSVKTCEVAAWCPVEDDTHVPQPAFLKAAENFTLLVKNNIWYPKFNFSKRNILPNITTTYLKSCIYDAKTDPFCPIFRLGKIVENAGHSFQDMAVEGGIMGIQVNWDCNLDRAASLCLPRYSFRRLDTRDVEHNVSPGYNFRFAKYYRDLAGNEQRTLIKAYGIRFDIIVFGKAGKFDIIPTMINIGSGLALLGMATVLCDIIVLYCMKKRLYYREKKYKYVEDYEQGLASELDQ

P2X5 = P2X5 (Homo sapiens, UniProt Q93086); conditions: cited from earlier work
P2X6 = P2X6 (Homo sapiens, UniProt O15547); conditions: read-out: IC50 P2X6; cited from earlier work
P2X7 = target: T5, P2X7 (Homo sapiens, UniProt Q99572); conditions: cited from earlier work
T5 sequence (Q99572 1-595): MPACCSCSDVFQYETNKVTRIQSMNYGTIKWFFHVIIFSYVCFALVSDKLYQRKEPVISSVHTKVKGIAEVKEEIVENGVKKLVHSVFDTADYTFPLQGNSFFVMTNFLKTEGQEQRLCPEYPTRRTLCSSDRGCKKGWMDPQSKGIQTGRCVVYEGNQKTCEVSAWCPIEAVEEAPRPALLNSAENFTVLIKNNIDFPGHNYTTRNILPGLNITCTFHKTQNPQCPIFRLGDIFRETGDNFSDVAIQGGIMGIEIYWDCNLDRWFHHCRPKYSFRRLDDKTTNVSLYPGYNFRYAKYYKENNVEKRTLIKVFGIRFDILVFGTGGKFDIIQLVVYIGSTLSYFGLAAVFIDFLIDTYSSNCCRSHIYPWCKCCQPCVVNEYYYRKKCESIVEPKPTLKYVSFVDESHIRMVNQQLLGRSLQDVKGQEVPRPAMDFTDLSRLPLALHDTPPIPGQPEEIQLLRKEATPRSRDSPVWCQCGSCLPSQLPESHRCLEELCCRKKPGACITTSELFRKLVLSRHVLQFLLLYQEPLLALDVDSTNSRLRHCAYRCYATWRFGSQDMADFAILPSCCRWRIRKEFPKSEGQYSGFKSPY

Sequence of P2X5 (Q93086 whole entry, species assumed): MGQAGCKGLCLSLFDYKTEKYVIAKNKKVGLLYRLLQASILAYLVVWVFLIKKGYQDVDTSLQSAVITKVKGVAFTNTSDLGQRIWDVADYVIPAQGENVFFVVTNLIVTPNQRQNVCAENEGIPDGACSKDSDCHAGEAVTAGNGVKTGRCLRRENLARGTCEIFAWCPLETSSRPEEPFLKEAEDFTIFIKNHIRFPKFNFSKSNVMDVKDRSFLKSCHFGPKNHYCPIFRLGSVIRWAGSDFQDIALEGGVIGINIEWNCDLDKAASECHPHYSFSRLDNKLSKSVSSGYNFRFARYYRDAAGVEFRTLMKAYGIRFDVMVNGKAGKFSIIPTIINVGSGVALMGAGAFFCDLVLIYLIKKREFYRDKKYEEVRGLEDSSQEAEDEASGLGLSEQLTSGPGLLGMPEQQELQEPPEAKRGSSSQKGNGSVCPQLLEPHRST
Sequence of P2X6 (O15547 whole entry, species assumed): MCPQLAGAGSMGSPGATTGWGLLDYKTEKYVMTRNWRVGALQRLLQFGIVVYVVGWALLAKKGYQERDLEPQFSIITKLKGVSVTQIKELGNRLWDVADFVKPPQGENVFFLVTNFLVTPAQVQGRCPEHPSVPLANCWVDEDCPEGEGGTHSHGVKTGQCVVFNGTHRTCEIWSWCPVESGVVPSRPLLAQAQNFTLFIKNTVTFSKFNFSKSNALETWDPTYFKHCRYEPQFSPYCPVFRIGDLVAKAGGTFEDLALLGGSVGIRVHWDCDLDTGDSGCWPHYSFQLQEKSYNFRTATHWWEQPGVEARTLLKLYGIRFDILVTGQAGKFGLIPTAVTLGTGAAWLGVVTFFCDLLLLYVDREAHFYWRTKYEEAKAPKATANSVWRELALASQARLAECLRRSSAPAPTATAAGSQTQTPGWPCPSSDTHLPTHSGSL

Cc1cc(-c2ccc(/N=N/c3ccc4c(S(=O)(=O)O)cc(S(=O)(=O)O)c(N)c4c3O)c(C)c2)ccc1/N=N/c1ccc2c(S(=O)(=O)O)cc(S(=O)(=O)O)c(N)c2c1O [Evans Blue]
IC50 (P2X1): 1400 µM | IC50 (P2X2): 1 to 400 µM | IC50 (P2X3): 1400 µM | IC50 (P2X4): 1 to 400 µM | IC50 (P2X5): 1 to 400 µM | IC50 (P2X6): 1 to 400 µM | IC50 (P2X7): 1 to 400 µM
